Consider six molecules from patent publication US4968708A, “Imidazo[2,1-B]benzothiazole compounds and antiulcer compositions containing the same” (priority 1988, dated 1990).

For one series, the system named is gastric juice secretion. The series can be described thus: Gastric juice secretion inhibition activity (pyloric ligature). Format: in vivo, Wistar strain male rats. Particulars: rats, 100 mg/kg p.o.; for inhibition in vivo at 100 mg/kg: Rattus norvegicus, po, read-out: Volume Inhibition Rate. The procedure:
A suspension of each test compound in a 5% gum arabic aqueous solution was orally given to Wistar strain male rats (at the age of 7 to 8 weeks, weighing 180 to 250 g; 7-9 rats in the group administered with the test compound; 14-17 rats in the control group) fasted for 24 hours at a dose of 100 mg of the test compound/5 ml/kg. Thirty minutes after administration, pyloric ligature was made under ethereal anesthesia. Four hours thereafter, the stomach was excised under ethereal anesthesia to collect gastric juice. The collected gastric juice was centrifuged (2500 rpm) at 4° C. for 10 minutes. After the supernatant was collected, the amount of the gastric juice and its pH were measured using a pH meter. Furthermore, the amount of free hydrochloric acid and the total acidity were measured with Topfer reagent and phenolphthalein reagent, respectively. Using a part of the gastric juice, pepsin output in the gastric juice was measured using casein as a substrate in a manner similar to the method of Anson et al.
(§1) In the control group, a 5% gum arabic aqueous solution was orally administered at a dose of 5 ml/kg.

The subject of series [1] is water-immersion stress ulcer. The series can be described thus: Antiulcer activity against water-immersion stress ulcer. Format: in vivo, Wistar strain male rats. The following applies: rats; for inhibition in vivo at 100 mg/kg: Rattus norvegicus, po, 6 h, read-out: Water-Immersion Stress Ulcer Inhibition Rate; for Water-Immersion Stress Ulcer Ulcer Index: 100 mg/kg p.o. 30 min before 6 h water immersion at 22°±1° C. The procedure:
A suspension of each test compound in a 5% gum arabic aqueous solution was orally given to Wistar strain male rats (at the age of 7 to 8 weeks, weighing 180 to 250 g; 7-9 rats in the group administered with the test compound; 10-16 rats in the control group) fasted for 24 hours at a dose of 100 mg of the test compound/5 ml/kg. Thirty minutes after administration, the animal was immersed in a water bath at 22°±1° C. up to the xiphisternum using a stress cage made by Tokyo University, Faculty of Pharmacology, to apply a stress load for 6 hours. After applying the stress load, the rats had the cervical vertebra dislocated to death. Then, the stomach was excised and, spotted and linear erosion and a long diameter of any ulcer were microscopically measured to determine an ulcer index and an inhibition rate.
as §1

The test system of the next series is ethanol-induced ulcer. Description: Antiulcer activity against ethanol-induced ulcer model. The following applies: rats, 100 mg/kg p.o. 30 min before absolute ethanol 5 ml/kg p.o.; for Ethanol Induced Ulcer Ulcer Index: stomach excised 1 h later; for Ethanol Induced Ulcer Inhibition Rate: vs control group. Format: in vivo, Wistar strain male rats. Here is the method:
A suspension of each test compound in a 5% gum arabic aqueous solution was orally given to Wistar strain male rats (at the age of 7 to 8 weeks, weighing 180 to 250 g; 5 rats in the group administered with the test compound; 9 rats in the control group) fasted for […] at a dose of 100 mg of any the test compound/5 ml/kg. Thirty minutes after administration, absolute ethanol was further orally administered at a dose of 5 ml/kg. One hour after administration of absolute ethanol, the stomach was excised under ethereal anesthesia and spotted and linear erosion and a long diameter of ulcer were microscopically measured to determine an ulcer index and an inhibition rate.
as §1

The next series has as its system ddy strain male mice. The series can be described thus: Acute toxicity. Type of series: in vivo. Particulars: 7 days observation. The procedure: (§2) A suspension of each test compound in a 5% gum arabic aqueous solution was orally given to ddy strain male mice (at the age of 4 to 5 weeks, weighing 25 to 35 g; 2 to 9 mice in one group). For 7 days after the administration, the mice were observed as to if they were dead or alive. Based on the number of deaths, the LD50 value was determined by the Probit method.

A short description of the next series: Acute toxicity. Type of series: in vivo. Particulars: mouse, in vivo, po; mice, 7 days observation, Probit method. Here is the method: as §2
The next series has as its system aspirin-induced ulcer. The series can be described thus: Antiulcer activity against aspirin-induced ulcer model. Format: in vivo, Wistar strain male rats. Particulars: rats, 100 mg/kg p.o. 30 min before aspirin 200 mg/kg p.o.; for inhibition in vivo at 100 mg/kg: Rattus norvegicus, po, 7 h, read-out: Aspirin Induced Ulcer Inhibition Rate; for Aspirin Induced Ulcer Ulcer Index: stomach excised 7 h after aspirin. The procedure:
Thirty minutes after administration, aspirin was further orally administered at a dose of 200 mg/kg. Seven hours after administration of aspirin, the stomach was excised under ethereal anesthesia and spotted and linear erosion and a long diameter of any ulcer were microscopically measured to determine an ulcer index and an inhibition rate.
as §1

Where [2] appears, read: 4 h, pyloric ligature, 4 h, vs control group.
Where [3] appears, read: pyloric ligature 30 min later, gastric juice collected after 4 h.
The mark [4] stands for this setting: pyloric ligature, 4 h, first part of Table 5.
[5] abbreviates: 100 mg/kg p.o. 30 min before 6 h water immersion, vs control group.
Setting [6] is: pyloric ligature, 4 h, second part of Table 5.

SMILES strings stand for the structures.

As usually defined, the LD50 is the dose at which mortality reaches 50%.

In the case of `Cc1nc2sc3ccccc3n2c1CO` [Example 1, 2-Methylimidazo[2,1-b]benzothiazole-3-methanol], the inhibition in vivo at 100 mg/kg with gastric juice secretion (setting [2]) stood at 52.5%; in series [1] (setting [5]), 80%; with aspirin-induced ulcer (vs control group), 59.4%. The “Volume (gastric juice)” value with gastric juice secretion (setting [3]) was determined as 2.8 ± 0.4 mL. In addition, the Acidity in the series with gastric juice secretion (pyloric ligature, 4 h) amounted to 49.0 ± 5.9 mEq/l. Further, in the series with gastric juice secretion (pyloric ligature, 4 h), the “Free HCl” value was found to be 9.4 ± 3.1 mEq/l. Besides, in the series on gastric juice secretion (pyloric ligature, 4 h), the “Pepsin Activity” value was 90.3 ± 5.9 units/ml. Further, in the series on gastric juice secretion (pyloric ligature, 4 h), the “Pepsin Output” value is listed as 59.6 ± 6.8 units/hr. Further, the “pH (gastric juice)” value in the series with gastric juice secretion (setting [4]) is 2.94 ± 0.30. The “Water-Immersion Stress Ulcer Ulcer Index” value in series [1] was determined as 4.3 ± 0.9 mm^2. Besides, the “Ethanol Induced Ulcer Ulcer Index” value in the series on ethanol-induced ulcer stood at 4.9 ± 2.6 mm^2. In addition, the “Ethanol Induced Ulcer Inhibition Rate” value with ethanol-induced ulcer worked out at 94.3%. The “Mortality (No. death/No. treated)” value in the series on ddy strain male mice (2000 mg/kg p.o) is listed as 0/4; in the series on ddy strain male mice (2828 mg/kg p.o), 1/5; in the series on ddy strain male mice (4000 mg/kg p.o) it was 3/5; with ddy strain male mice (4899 mg/kg p.o), 2/2. This molecule also yielded an LD50 at 168 h in “Acute toxicity” of 3590 mg/kg. Also, in the series with aspirin-induced ulcer, the “Aspirin Induced Ulcer Ulcer Index” value is on record as 23.3 ± 5.1 mm^2.

Regarding `Cc1nc2sc3ccccc3n2c1CO.Cl` [Example 2, 2-Methylimidazo[2,1-b]benzothiazole-3-methanol hydrochloride], the “Volume (gastric juice)” value in the series with gastric juice secretion (setting [3]) came out at 2.8 ± 0.4 mL. In the series on gastric juice secretion (pyloric ligature, 4 h), the Acidity amounted to 77.3 ± 4.5 mEq/l, the “Free HCl” value was found to be 15.8 ± 4.5 mEq/l, the “Pepsin Activity” value amounted to 91.1 ± 8.3 units/ml and the “Pepsin Output” value was found to be 58.4 ± 5.2 units/hr. Besides, the “pH (gastric juice)” value with gastric juice secretion (setting [4]) was 2.43 ± 0.20. The “Volume Inhibition Rate” value with gastric juice secretion (pyloric ligature, 4 h, vs control group) is recorded as 53.3%. For the same molecule, in series [1], the “Water-Immersion Stress Ulcer Ulcer Index” value amounted to 4.6 ± 1.1 mm^2. Also, the “Water-Immersion Stress Ulcer Inhibition Rate” value in series [1] (setting [5]) is reported as 80.3%. Further, in the series with ddy strain male mice (1732 mg/kg p.o), the “Mortality (No. death/No. treated)” value is given as 0/5. In the series with ddy strain male mice (2041 mg/kg p.o), the “Mortality (No. death/No. treated)” value is 2/4. The “Mortality (No. death/No. treated)” value with ddy strain male mice (2236 mg/kg p.o) was 3/5. Also, the “Mortality (No. death/No. treated)” value in the series on ddy strain male mice (2449 mg/kg p.o) is given as 4/5. In the series “Acute toxicity”, this molecule had an LD50 at 168 h of 2130 mg/kg. In addition, in the series on aspirin-induced ulcer, the “Aspirin Induced Ulcer Ulcer Index” value amounted to 36.0 ± 5.8 mm^2. Besides, in the series on aspirin-induced ulcer (vs control group), the “Aspirin Induced Ulcer Inhibition Rate” value amounted to 46.1%.

Turning to `CCc1nc2sc3ccccc3n2c1CO` [Example 8, 2-Ethylimidazo[2,1-b]benzothiazole-3-methanol], the inhibition in vivo at 100 mg/kg in series [1] (setting [5]) turned out to be 50.3%. The “Water-Immersion Stress Ulcer Ulcer Index” value in series [1] is reported as 8.1 ± 2.2 mm^2. In addition, in the series with ethanol-induced ulcer, the “Ethanol Induced Ulcer Ulcer Index” value was determined as 4.1 ± 2.2 mm^2 and the “Ethanol Induced Ulcer Inhibition Rate” value was determined as 95.2%.

For the molecule `Cc1nc2sc3cc(F)ccc3n2c1CO` [Example 11, 7-Fluoro-2-methylimidazo[2,1-b]benzothiazole-3-methanol], in the series with gastric juice secretion (setting [6]), the “Acid Output” value was 118.8 ± 37.2 mcEq/100 g, the “Free HCl” value came out at 89.1 ± 35.5 mcEq/100 g, the “Pepsin Output” value turned out to be 16.7 ± 2.9 mg tyrosine/100 g and the “Volume (gastric juice)” value is recorded as 1.40 ± 0.34 ml/100 g. The “pH (gastric juice)” value with gastric juice secretion (setting [6]) was determined as 1.58 ± 0.15. In addition, the inhibition in vivo at 100 mg/kg in series [1] (setting [5]) stood at 54%. In addition, the “Water-Immersion Stress Ulcer Ulcer Index” value in series [1] was 10.9 ± 4.4 mm^2. The “Mortality (No. death/No. treated)” value in the series on ddy strain male mice (500 mg/kg p.o) was 0/5. In the series on ddy strain male mice (1000 mg/kg p.o), the “Mortality (No. death/No. treated)” value is reported as 0/5. The inhibition in vivo at 100 mg/kg in the series on aspirin-induced ulcer (vs control group) came to 51.8%. Further, the “Aspirin Induced Ulcer Ulcer Index” value in the series with aspirin-induced ulcer worked out at 34.2 ± 2.2 mm^2.

`COCc1c(C)nc2sc3ccccc3n12` [Example 12, 2-Methylimidazo[2,1-b]benzothiazole-3-methanol methyl ether]: the inhibition in vivo at 100 mg/kg worked out at 60.3% with gastric juice secretion (setting [2]), 83.3% in series [1] (setting [5]) and 34.5% in the series on aspirin-induced ulcer (vs control group). In addition, the “Volume (gastric juice)” value in the series on gastric juice secretion (setting [3]) stood at 2.5 ± 0.1 mL. For the same molecule, the Acidity in the series on gastric juice secretion (pyloric ligature, 4 h) was determined as 66.7 ± 4.7 mEq/l. Also, the “Free HCl” value in the series on gastric juice secretion (pyloric ligature, 4 h) came out at 23.2 ± 6.9 mEq/l. In addition, the “Pepsin Activity” value in the series with gastric juice secretion (pyloric ligature, 4 h) is listed as 90.7 ± 4.1 units/ml. In addition, the “Pepsin Output” value with gastric juice secretion (pyloric ligature, 4 h) is recorded as 55.5 units/hr. Besides, the “pH (gastric juice)” value in the series on gastric juice secretion (setting [4]) is recorded as 2.28 ± 0.26. The “Water-Immersion Stress Ulcer Ulcer Index” value in series [1] was found to be 2.2 ± 0.4 mm^2. Further, the “Mortality (No. death/No. treated)” value is given as 1/5 in the series with ddy strain male mice (1414 mg/kg p.o), 6/9 in the series with ddy strain male mice (2000 mg/kg p.o) and 6/6 in the series on ddy strain male mice (2828 mg/kg p.o). Further, the 50% lethal dose (LD50) at 168 h in the series “Acute toxicity” turned out to be 1770 mg/kg. Further, the “Aspirin Induced Ulcer Ulcer Index” value in the series with aspirin-induced ulcer amounted to 49.9 ± 5.4 mm^2.

For `COc1ccc(COCc2c(C)nc3sc4ccccc4n23)cc1` [Example 14, 2-Methylimidazo[2,1-b]benzothiazole-3-methanol (4-methoxy-benzyl) ether], in the series on gastric juice secretion (setting [6]), the “Acid Output” value is recorded as 196.8 ± 38.0 mcEq/100 g, the “Free HCl” value was found to be 144.9 ± 35.0 mcEq/100 g, the “Pepsin Output” value was determined as 22.4 ± 3.8 mg tyrosine/100 g and the “Volume (gastric juice)” value is given as 2.63 ± 0.35 ml/100 g. Also, the “pH (gastric juice)” value in the series with gastric juice secretion (setting [6]) stood at 1.42 ± 0.08. The inhibition in vivo at 100 mg/kg in series [1] (setting [5]) was found to be 39%. The “Water-Immersion Stress Ulcer Ulcer Index” value in series [1] was determined as 7.5 ± 2.2 mm^2. The “Mortality (No. death/No. treated)” value in the series with ddy strain male mice (500 mg/kg p.o) was 0/5. The “Mortality (No. death/No. treated)” value in the series with ddy strain male mice (1000 mg/kg p.o) is recorded as 0/5. Also, the inhibition in vivo at 100 mg/kg with aspirin-induced ulcer (vs control group) came to 15%. Also, the “Aspirin Induced Ulcer Ulcer Index” value with aspirin-induced ulcer is on record as 71.5 ± 8.0 mm^2.
